Active and inactive are the calls of the source.
How the values were obtained:
Assay type in all cases: functional, organism-based
Felis catus [1] = assay: Effect on localization of peroxidase in rough endoplasmic reticulum of cat at 7.3 mg/kg, iv administered as single dose measured after 30 mins by electron microscopy
Felis catus [2] = assay: Effect on activity of peroxidase in cat acinar cells at 7.3 mg/kg, iv administered as single dose measured after 30 mins
Felis catus [3] = assay: Effect on localization of peroxidase in rough golgi complex of cat at 7.3 mg/kg, iv administered as single dose measured after 30 mins by electron microscopy; conditions: Golgi body
Felis catus [4] = assay: Effect on localization of peroxidase in secretory granules of cat at 7.3 mg/kg, iv administered as single dose measured after 30 mins by electron microscopy
Felis catus [5] = assay: Reduction in peroxidase-positive secretory granules in cat at 7.3 mg/kg, iv administered as single dose measured after 5 hrs by electron microscopy
Felis catus [6] = assay: Increase in electron-lucent secretory granules in cat at 7.3 mg/kg, iv administered as single dose measured after 5 hrs by electron microscopy
Felis catus [7] = assay: Increase in secretory granules without peroxidase activity in cat at 7.3 mg/kg, iv administered as single dose measured after 9 hrs by electron microscopy
Felis catus [8] = assay: Decrease in Peroxidase activity in acinar cells of the nasal glands of cat at 8 mg/kg, iv dosed over 7 hours
Felis catus [9] = assay: Effect on activity of peroxidase in cat in rough golgi complex at 7.3 mg/kg, iv administered as single dose measured after 5 hrs; conditions: Golgi body
Felis catus [10] = assay: Effect on activity of peroxidase in cat in rough golgi complex at 7.3 mg/kg, iv administered as single dose measured after 9 hrs; conditions: Golgi body
Felis catus [11] = assay: Effect on activity of peroxidase in cat rough endoplasmic reticulum at 7.3 mg/kg, iv administered as single dose measured after 5 hrs
Felis catus [12] = assay: Effect on activity of peroxidase in cat rough endoplasmic reticulum at 7.3 mg/kg, iv administered as single dose measured after 9 hrs
Felis catus [13] = assay: Decrease in Peroxidase activity in rough endoplasmic reticulum of cat at 8 mg/kg, iv dosed over 7 hours
Felis catus [14] = assay: Increase in granule content containing the peroxidase reaction product discharged into acinar lumen in cat at 0.3 mg/kg, iv after 20 mins
Felis catus [15] = assay: Reduction in secretion rate of electron dense peroxidase-positive granules in cat at 0.3 mg/kg, iv after 60 mins
Felis catus [16] = assay: Effect on peroxidase reaction product in r-ER, Golgi complex, and secretory granules in acinar cells of cat at 0.3 mg/kg, iv dosed 10 mins before dosing of 7.3 mg/kg, iv propranolol and measured after 20 mins post ligand dose
Felis catus [17] = assay: Effect on peroxidase reaction product in r-ER, Golgi complex, and secretory granules in acinar cells of cat at 0.3 mg/kg, iv dosed 10 mins before dosing of 7.3 mg/kg, iv propranolol and measured after 60 mins post ligand dose
Felis catus [18] = assay: Effect on activity of peroxidase in acinar cells of cat at 0.3 mg/kg, iv dosed 10 mins before dosing of 7.3 mg/kg, iv propranolol and measured after 20 mins post ligand dose
Felis catus [19] = assay: Effect on activity of peroxidase in acinar cells of cat at 0.3 mg/kg, iv dosed 10 mins before dosing of 7.3 mg/kg, iv propranolol and measured after 60 mins post ligand dose
Felis catus [20] = assay: Effect on distribution of peroxidase in acinar cells of cat at 0.3 mg/kg, iv dosed 10 mins before dosing of 7.3 mg/kg, iv propranolol and measured after 20 mins post ligand dose by electron microscopy
Felis catus [21] = assay: Effect on distribution of peroxidase in acinar cells of cat at 0.3 mg/kg, iv dosed 10 mins before dosing of 7.3 mg/kg, iv propranolol and measured after 60 mins post ligand dose by electron microscopy

Measured: Activity

CC(C)NCC(O)COc1cccc2ccccc12 (stereo unspecified)
active: Felis catus [5] | Felis catus [6] | Felis catus [7] | Felis catus [8] | Felis catus [13]
inactive: Felis catus [1] | Felis catus [2] | Felis catus [3] | Felis catus [4] | Felis catus [9] | Felis catus [10] | Felis catus [11] | Felis catus [12]

CC(C)NCC(O)c1ccc(O)c(O)c1 (stereo unspecified)
inactive: Felis catus [16] | Felis catus [17] | Felis catus [18] | Felis catus [19] | Felis catus [20] | Felis catus [21]
active: Felis catus [14] | Felis catus [15]

From ChEMBL document CHEMBL5647687, “Beta-adrenoceptor control of peroxidase synthesis in nasal glands” (Ann Otol Rhinol Laryngol, 1990)
